Data from the supplement of paper PMC4862054.

Key:
Details in all cases: incubation time: 72 h
MFM-223 [1] = test: normalised response (% of control), CellTiter-Glo; higher = more viable cells (100 = DMSO, 0 = benzethonium chloride kill control)
Experimental: (§1)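 DSRT, 72 h incubation, CellTox Green / CellTiter-Glo readout. Signal is normalised to DMSO and benzethonium chloride controls. Value is the normalised response at the highest dose.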

CAL-120 [2] = test: as above
Experimental: as §1

SK-BR-3 = test: as above
Experimental: as §1

CAL-148 [3] = test: as above
Experimental: as §1

HCC1937 [4] = test: as above
Experimental: as §1

DU-4475 [5] = test: as above
Experimental: as §1

BT-474 [6] = test: as above
Experimental: as §1

CAL-51 [7] = test: as above
Experimental: as §1

MDA-MB-231 [8] = test: as above
Experimental: as §1

MDA-MB-453 [9] = test: as above
Experimental: as §1

HDQ-P1 [10] = test: as above
Experimental: as §1

HCC1143 [11] = test: as above
Experimental: as §1

MDA-MB-436 [12] = test: as above
Experimental: as §1

Hs578T [13] = test: as above
Experimental: as §1

BT-549 [14] = test: as above
Experimental: as §1

CAL-85-1 [15] = test: as above
Experimental: as §1

MDA-MB-468 [16] = test: as above
Experimental: as §1

HCC1599 [17] = test: as above
Experimental: as §1

MCF-10A [18] = test: as above
Experimental: as §1

MFM-223 [19] = test: normalised response (% of control), CellTox Green; higher = less cell death (100 = DMSO, 0 = benzethonium chloride kill control)
In short: (§2)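 Every value is a normalised signal taken at one concentration of a dilution series. Compound was placed in 384-well plates at 5 concentrations in 10-fold steps over a compound-specific 10,000-fold range, and 20 µl of breast cancer cell suspension was seeded onto it. After 72 h, CellTox Green fluorescence (485/520 nm) was measured first and CellTiter-Glo luminescence second, following 10 min at room temperature. Each plate was scaled to 0.1 % DMSO (100) and a positive kill control (0).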

CAL-120 [20] = test: as above
In short: as §2

CAL-148 [21] = test: as above
In short: as §2

HCC1937 [22] = test: as above
In short: as §2

DU-4475 [23] = test: as above
In short: as §2

BT-474 [24] = test: as above
In short: as §2

CAL-51 [25] = test: as above
In short: as §2

MDA-MB-231 [26] = test: as above
In short: as §2

MDA-MB-453 [27] = test: as above
In short: as §2

HDQ-P1 [28] = test: as above
In short: as §2

HCC1143 [29] = test: as above
In short: as §2

MDA-MB-436 [30] = test: as above
In short: as §2

Hs578T [31] = test: as above
In short: as §2

BT-549 [32] = test: as above
In short: as §2

CAL-85-1 [33] = test: as above
In short: as §2

MDA-MB-468 [34] = test: as above
In short: as §2

HCC1599 [35] = test: as above
In short: as §2

MCF-10A [36] = test: as above
In short: as §2

Compound | normalised response (MFM-223 [1]) [%] | normalised response (CAL-120 [2]) [%] | normalised response (SK-BR-3) [%] | normalised response (CAL-148 [3]) [%] | normalised response (HCC1937 [4]) [%] | normalised response (DU-4475 [5]) [%] | normalised response (BT-474 [6]) [%] | normalised response (CAL-51 [7]) [%] | normalised response (MDA-MB-231 [8]) [%] | normalised response (MDA-MB-453 [9]) [%] | normalised response (HDQ-P1 [10]) [%] | normalised response (HCC1143 [11]) [%] | normalised response (MDA-MB-436 [12]) [%] | normalised response (Hs578T [13]) [%] | normalised response (BT-549 [14]) [%] | normalised response (CAL-85-1 [15]) [%] | normalised response (MDA-MB-468 [16]) [%] | normalised response (HCC1599 [17]) [%] | normalised response (MCF-10A [18]) [%] | normalised response (MFM-223 [19]) [%] | normalised response (CAL-120 [20]) [%] | normalised response (CAL-148 [21]) [%] | normalised response (HCC1937 [22]) [%] | normalised response (DU-4475 [23]) [%] | normalised response (BT-474 [24]) [%] | normalised response (CAL-51 [25]) [%] | normalised response (MDA-MB-231 [26]) [%] | normalised response (MDA-MB-453 [27]) [%] | normalised response (HDQ-P1 [28]) [%] | normalised response (HCC1143 [29]) [%] | normalised response (MDA-MB-436 [30]) [%] | normalised response (Hs578T [31]) [%] | normalised response (BT-549 [32]) [%] | normalised response (CAL-85-1 [33]) [%] | normalised response (MDA-MB-468 [34]) [%] | normalised response (HCC1599 [35]) [%] | normalised response (MCF-10A [36]) [%]
COC(=O)c1ccc2c(c1)NC(=O)/C2=C(\Nc1ccc(N(C)C(=O)CN2CCN(C)CC2)cc1)c1ccccc1 [Nintedanib] (10000 nM) | 50.6 | 52.1 | 71 | 90.8 | 27.6 | 84.8 | 3.88 | 2.78 | 1.73 | 73.4 | 40.1 | 48 | 17.1 | 82.3 | 0.72 | 87.7 | 4.97 | 84 | 40.1 | 92.7 | 77.8 | 79.6 | 14.2 | 96.7 | -15.7 | -13 | -69.5 | 99.7 | 61.2 | 87.2 | 42.1 | 104 | 27.7 | 85.3 | 15.6 | 99.9 | 31.4
CNC(=O)c1cccc(-c2ccc3c(N4CCOC[C@@H]4C)nc(N4CCOC[C@@H]4C)nc3n2)c1 [AZD2014] (10000 nM) | 33.6 | 23.6 | 20 | 15.3 | 42.3 | 23.8 | 49.6 | 20.6 | 46.2 | 33 | 34.1 | 25.4 | 54.4 | 27.4 | 19.9 | 27.3 | 25.6 | 65.3 | 33.9 | 93.4 | 106 | 58.9 | 108 | 86.3 | 96.4 | 90.1 | 107 | 95.2 | 104 | 110 | 95 | 129 | 74.9 | 77.8 | 136 | 95 | 96
Cc1cc(Nc2cc(CN3CCOCC3)c3nc(C)c(Cc4ccc(Cl)cc4F)n3n2)n[nH]1 [Gandotinib] (10000 nM) | 59.8 | 27.9 | 50.8 | 96.7 | 64.2 | 72.3 | 44.5 | 26 | 27.9 | 120 | 39.4 | 51.7 | 49 | 7.38 | 14.2 | 58.8 | 28.5 | 75.9 | 41.2 | 76 | 59.9 | 69.7 | 101 | 103 | 80.9 | 24 | 67.7 | 88.8 | 102 | 100 | 82 | -107 | 83.8 | 51.3 | 11.5 | 92 | 58.1
S=P(N1CC1)(N1CC1)N1CC1 [Thio-TEPA] (50000 nM) | 101 | 97.2 | 101 | 98.1 | 93 | 100 | 91.7 | 63.8 | 94.8 | 111 | 99.7 | 95.6 | 104 | 103 | 77.2 | 93.7 | 96.9 | 111 | 104 | 77.7 | 99 | 89.4 | 73.4 | 97.7 | 101 | 48.1 | 113 | 103 | 97.6 |  | 103 |  | 93.5 | 93.8 | 119 | 97.7 | 97.2
CNC(=O)c1ccc(N2C(=S)N(c3ccc(C#N)c(C(F)(F)F)c3)C(=O)C23CCC3)cc1F [RD162] (10000 nM) | 89.5 | 101 | 95.3 | 105 | 93.8 | 95.5 | 89.8 | 95.3 | 85.1 | 91.8 | 92.3 | 95 | 92.6 | 101 | 96.3 | 91.5 | 93.3 | 106 | 102 | 50.8 | 101 | 97.4 | 90.6 | 98.4 | 103 | 109 | 99.8 | 96.3 | 106 |  | 95.4 | 110 | 84.9 | 91.2 | 89.8 | 97.1 | 111
